Reference: patent US8741934B2, “Inhibitors of ion channels” (Pfizer Limited, priority 2007, dated 2014)

What follows are compounds tested against T1, hSCN3A sodium channels (Homo sapiens, UniProt Q9NY46) (assay: hSCN3A electrophysiology, whole-cell patch-clamp or PatchXpress 7000, estimated IC-50 (Table B)). Settings: not given.
T1 construct: expressed in transfected cells
T1 sequence (Q9NY46 whole entry): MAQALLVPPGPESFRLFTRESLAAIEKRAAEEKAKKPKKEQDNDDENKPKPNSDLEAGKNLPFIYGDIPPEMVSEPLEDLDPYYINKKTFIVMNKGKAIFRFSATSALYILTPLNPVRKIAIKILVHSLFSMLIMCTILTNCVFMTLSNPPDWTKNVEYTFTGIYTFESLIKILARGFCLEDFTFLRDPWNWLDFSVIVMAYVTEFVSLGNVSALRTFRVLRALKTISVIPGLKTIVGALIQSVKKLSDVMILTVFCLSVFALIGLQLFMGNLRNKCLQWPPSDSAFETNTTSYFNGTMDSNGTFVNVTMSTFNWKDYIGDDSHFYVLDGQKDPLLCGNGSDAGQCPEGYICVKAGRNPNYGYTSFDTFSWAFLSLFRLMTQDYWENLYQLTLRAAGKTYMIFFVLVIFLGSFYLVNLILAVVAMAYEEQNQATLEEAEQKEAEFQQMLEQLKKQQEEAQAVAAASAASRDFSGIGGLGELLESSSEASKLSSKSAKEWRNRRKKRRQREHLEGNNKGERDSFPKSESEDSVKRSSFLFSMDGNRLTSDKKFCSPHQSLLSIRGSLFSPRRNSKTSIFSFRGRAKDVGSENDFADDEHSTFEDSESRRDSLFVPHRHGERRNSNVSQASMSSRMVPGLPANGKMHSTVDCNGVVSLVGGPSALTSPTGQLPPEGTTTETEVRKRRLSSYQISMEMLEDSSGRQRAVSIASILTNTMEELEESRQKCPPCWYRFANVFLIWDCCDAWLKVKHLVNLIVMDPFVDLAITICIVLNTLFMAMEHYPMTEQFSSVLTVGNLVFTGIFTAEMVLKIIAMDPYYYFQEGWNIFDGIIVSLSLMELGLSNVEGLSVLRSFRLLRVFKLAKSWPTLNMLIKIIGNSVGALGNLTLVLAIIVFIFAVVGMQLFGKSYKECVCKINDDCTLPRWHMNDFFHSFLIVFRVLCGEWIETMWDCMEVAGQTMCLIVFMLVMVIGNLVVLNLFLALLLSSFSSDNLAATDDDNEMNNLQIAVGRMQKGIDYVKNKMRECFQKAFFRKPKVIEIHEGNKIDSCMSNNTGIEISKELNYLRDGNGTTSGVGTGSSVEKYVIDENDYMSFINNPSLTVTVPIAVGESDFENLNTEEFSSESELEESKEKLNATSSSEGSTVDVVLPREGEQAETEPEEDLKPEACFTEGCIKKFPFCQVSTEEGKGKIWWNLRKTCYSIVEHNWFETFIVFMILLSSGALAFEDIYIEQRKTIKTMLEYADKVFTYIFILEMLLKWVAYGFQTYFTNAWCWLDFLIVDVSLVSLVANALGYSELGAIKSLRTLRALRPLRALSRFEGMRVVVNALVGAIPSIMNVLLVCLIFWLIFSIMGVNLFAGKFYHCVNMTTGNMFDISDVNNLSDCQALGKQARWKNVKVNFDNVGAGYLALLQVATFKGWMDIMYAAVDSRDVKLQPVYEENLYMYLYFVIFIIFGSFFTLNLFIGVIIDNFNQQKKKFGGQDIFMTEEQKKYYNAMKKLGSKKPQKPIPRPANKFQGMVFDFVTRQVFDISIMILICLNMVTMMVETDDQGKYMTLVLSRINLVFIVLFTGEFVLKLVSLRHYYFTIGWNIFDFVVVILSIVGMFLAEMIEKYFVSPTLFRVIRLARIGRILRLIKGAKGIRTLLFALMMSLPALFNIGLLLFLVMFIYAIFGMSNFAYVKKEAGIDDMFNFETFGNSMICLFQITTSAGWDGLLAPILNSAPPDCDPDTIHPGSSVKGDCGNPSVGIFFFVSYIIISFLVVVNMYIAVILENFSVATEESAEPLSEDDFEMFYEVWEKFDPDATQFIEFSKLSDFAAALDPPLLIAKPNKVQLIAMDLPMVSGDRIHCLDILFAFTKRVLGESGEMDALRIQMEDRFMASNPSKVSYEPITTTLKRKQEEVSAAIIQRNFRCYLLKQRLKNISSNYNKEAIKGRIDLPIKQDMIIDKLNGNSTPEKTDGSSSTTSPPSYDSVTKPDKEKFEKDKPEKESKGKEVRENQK
Type: cell-based
In short: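 A 20 msec test pulse to 0 mV followed an 8 sec conditioning prepulse at each cell's measured V1/2. Room-temperature (22-24° C) recordings on HEK cells stably expressing the channel, conventional or PatchXpress.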
`O=C(NCc1ccc(C(F)(F)F)cc1)c1cccc(S(=O)(=O)Nc2nncs2)c1` [Example 350, 3-[(1,3,4-Thiadiazol-2-ylamino)sulfonyl]-N-[4-(trifluoromethyl)benzyl]benzamide] was tested, and the IC50 was > 10000 nM.

Same assay, conditions: estimated IC-50; hSCN3A cells, whole-cell patch-clamp or PatchXpress 7000; read-out: SCN3A EIC-50
`O=C(NCc1ccc(F)c(C(F)(F)F)c1)c1ccc(S(=O)(=O)Nc2nccs2)cc1F` [Example 336, 2-Fluoro-N-[4-fluoro-3-(trifluoromethyl)benzyl]-4-[(1,3-thiazol-2-ylamino)sulfonyl] benzamide] gave an IC50 of 240 nM.
Work on `O=C(NCc1ccc(OC(F)(F)F)c(F)c1)c1ccc(S(=O)(=O)Nc2ncc(Cl)s2)cc1Cl` [Example 337, 2-Chloro-4-{[(5-chloro-1,3-thiazol-2-yl)amino]sulfonyl}-N-[3-fluoro-4-(trifluoromethoxy)benzyl]benzamide] yielded an IC50 of 390 nM.
With `O=C(NCc1ccc(C(F)(F)F)cc1)c1ccc(S(=O)(=O)Nc2ncc(Cl)s2)cc1Cl` [Example 338, 2-Chloro-4-{[(5-chloro-1,3-thiazol-2-yl)amino]sulfonyl}-N-[4-(trifluoromethyl)benzyl] benzamide] the IC50 was 1070 nM.
`O=C(NCc1ccc(C(F)(F)F)c(F)c1)c1ccc(S(=O)(=O)Nc2ncc(Cl)s2)cc1Cl` [Example 339, 2-Chloro-4-{[(5-chloro-1,3-thiazol-2-yl)amino]sulfonyl}-N-[3-fluoro-4-(trifluoromethyl)benzyl]benzamide] showed an IC50 of 590 nM.
`O=C(NCc1ccc(C(F)(F)F)c(F)c1)c1ccc(S(=O)(=O)Nc2nccs2)cn1` [Example 340, N-[3-fluoro-4-(trifluoromethyl)benzyl]-5-[(1,3-thiazol-2-ylamino)sulfonyl]pyridine-2-carboxamide] was tested, and the IC50 was 280 nM.
For `O=C(NCc1ccc(C(F)(F)F)cc1)c1ccc(S(=O)(=O)Nc2nccs2)cn1` [Example 342, 5-[(1,3-Thiazol-2-ylamino)sulfonyl]-N-[4-(trifluoromethyl)benzyl] pyridine-2-carboxamide], the IC50 was 510 nM.
Compound `O=C(NCc1ccc(OC(F)(F)F)c(F)c1)c1ccc(S(=O)(=O)Nc2nccs2)cn1` [Example 343, N-[3-fluoro-4-(trifluoromethoxy)benzyl]-5-[(1,3-thiazol-2-ylamino)sulfonyl] pyridine-2-carboxamide] has an IC50 of 310 nM.
`O=C(NCc1ccc(C(F)(F)F)cc1)c1ccc(S(=O)(=O)Nc2ncc(Cl)s2)cn1` [Example 344, 5-{[(5-Chloro-1,3-thiazol-2-yl)amino]sulfonyl}-N-[4-(trifluoromethyl)benzyl]pyridine-2-carboxamide] gave an IC50 of 520 nM.
Work on `N#Cc1cc(S(=O)(=O)Nc2ncc(Cl)s2)ccc1C(=O)NCc1ccc(C(F)(F)F)cc1` [Example 347, 4-{[(5-Chloro-1,3-thiazol-2-yl)amino]sulfonyl}-2-cyano-N-[4-(trifluoromethyl)benzyl]benzamide] yielded an IC50 of 1620 nM.
`N#Cc1cc(S(=O)(=O)Nc2ncc(Cl)s2)ccc1C(=O)NCc1ccc(C(F)(F)F)c(F)c1` [Example 348, 4-{[(5-Chloro-1,3-thiazol-2-yl)amino]sulfonyl}-2-cyano-N-[3-fluoro-4-(trifluoromethyl)benzyl]benzamide] was tested, and the IC50 was 1580 nM.
In the case of `O=C(NCc1ccc(C(F)(F)F)cc1)c1cccc(S(=O)(=O)Nc2nccs2)c1` [Example 349, 3-[(1,3-Thiazol-2-ylamino)sulfonyl]-N-[4-(trifluoromethyl)benzyl]benzamide], the IC50 is reported as 9870 nM.
In the case of `O=C(NCc1ccc(C(F)(F)F)cc1)c1ccc(S(=O)(=O)Nc2ncc(Cl)s2)cc1F` [Example 352, 4-{[(5-Chloro-1,3-thiazol-2-yl)amino]sulfonyl}-2-fluoro-N-[4-(trifluoromethyl)benzyl]benzamide], the IC50 is reported as 200 nM.
Compound `O=C(NCc1ccc(F)c(C(F)(F)F)c1)c1ccc(S(=O)(=O)Nc2ncc(Cl)s2)cc1F` [Example 353, 4-{[(5-Chloro-1,3-thiazol-2-yl)amino]sulfonyl}-2-fluoro-N-[4-fluoro-3-(trifluoromethyl)benzyl]benzamide] has an IC50 of 220 nM.
`O=C(NCc1cccc(C(F)(F)F)c1)c1ccc(S(=O)(=O)Nc2ncc(Cl)s2)cc1F` [Example 354, 4-{[(5-Chloro-1,3-thiazol-2-yl)amino]sulfonyl}-2-fluoro-N-[3-(trifluoromethyl)benzyl]benzamide] was tested, and the IC50 was 210 nM.
For `O=C(NCc1ccc(Cl)c(F)c1)c1ccc(S(=O)(=O)Nc2ncc(Cl)s2)cc1F` [Example 355, N-(4-chloro-3-fluorobenzyl)-4-{[(5-chloro-1,3-thiazol-2-yl)amino]sulfonyl}-2-fluorobenzamide], the IC50 was 150 nM.
With `O=C(NCc1ccc(C(F)(F)F)c(F)c1)c1ccc(S(=O)(=O)Nc2ncc(Cl)s2)cc1F` [Example 356, 4-{[(5-Chloro-1,3-thiazol-2-yl)amino]sulfonyl}-2-fluoro-N-[3-fluoro-4-(trifluoromethyl)benzyl]benzamide] the IC50 was 210 nM.
In the case of `O=C(NCc1cccc(OC(F)(F)F)c1)c1ccc(S(=O)(=O)Nc2ncc(Cl)s2)cc1F` [Example 357, 4-{[(5-Chloro-1,3-thiazol-2-yl)amino]sulfonyl}-2-fluoro-N-[3-(trifluoromethoxy)benzyl]benzamide], the IC50 is reported as 190 nM.
`O=C(NCc1ccc(F)c(OC(F)(F)F)c1)c1ccc(S(=O)(=O)Nc2ncc(Cl)s2)cc1F` [Example 358, 4-{[(5-Chloro-1,3-thiazol-2-yl)amino]sulfonyl}-2-fluoro-N-[4-fluoro-3-(trifluoromethoxy)benzyl]benzamide] gave an IC50 of 370 nM.
`O=C(NCc1ccc(OC(F)(F)F)c(F)c1)c1ccc(S(=O)(=O)Nc2ncc(Cl)s2)cc1F` [Example 359, 4-{[(5-Chloro-1,3-thiazol-2-yl)amino]sulfonyl}-2-fluoro-N-[3-fluoro-4-(trifluoromethoxy)benzyl]benzamide] was tested, and the IC50 was 170 nM.
`O=C(NCc1ccc(OC(F)(F)F)cc1)c1ccc(S(=O)(=O)Nc2ncc(Cl)s2)cc1F` [Example 360, 4-{[(5-Chloro-1,3-thiazol-2-yl)amino]sulfonyl}-2-fluoro-N-[4-(trifluoromethoxy)benzyl]benzamide] showed an IC50 of 160 nM.
In the case of `O=C(NCc1ccc(F)c(F)c1)c1ccc(S(=O)(=O)Nc2ncc(Cl)s2)cc1F` [Example 361, 4-{[(5-Chloro-1,3-thiazol-2-yl)amino]sulfonyl}-N-(3,4-difluorobenzyl)-2-fluorobenzamide], the IC50 is reported as 310 nM.
Work on `O=C(NCc1ccc(OC(F)(F)F)cc1)c1ccc(S(=O)(=O)Nc2ncc(Cl)s2)c(Cl)c1` [Example 362, 3-Chloro-4-{[(5-chloro-1,3-thiazol-2-yl)amino]sulfonyl}-N-[4-(trifluoromethoxy)benzyl]benzamide] yielded an IC50 of 1090 nM.
`O=C(NCc1ccc(F)c(Cl)c1)c1ccc(S(=O)(=O)Nc2ncc(Cl)s2)c(Cl)c1` [Example 363, 3-Chloro-N-(3-chloro-4-fluorobenzyl)-4-{[(5-chloro-1,3-thiazol-2-yl)amino]sulfonyl} benzamide] was tested, and the IC50 was 1200 nM.
`O=C(NCc1cccc(OC(F)(F)F)c1)c1ccc(S(=O)(=O)Nc2ncc(Cl)s2)c(Cl)c1` [Example 364, 3-Chloro-4-{[(5-chloro-1,3-thiazol-2-yl)amino]sulfonyl}-N-[3-(trifluoromethoxy)benzyl]benzamide] gave an IC50 of 2180 nM.
`O=C(NCc1ccc(OC(F)(F)F)c(F)c1)c1ccc(S(=O)(=O)Nc2ncc(Cl)s2)c(Cl)c1` [Example 365, 3-Chloro-4-{[(5-chloro-1,3-thiazol-2-yl)amino]sulfonyl}-N-[3-fluoro-4-(trifluoromethoxy)benzyl]benzamide] was tested, and the IC50 was 600 nM.
Compound `O=C(NCc1ccc(C(F)(F)F)c(F)c1)c1ccc(S(=O)(=O)Nc2ncc(Cl)s2)c(Cl)c1` [Example 366, 3-Chloro-4-{[(5-chloro-1,3-thiazol-2-yl)amino]sulfonyl}-N-[3-fluoro-4-(trifluoromethyl)benzyl] benzamide] has an IC50 of 730 nM.
For `O=C(NCc1ccc(F)c(OC(F)(F)F)c1)c1ccc(S(=O)(=O)Nc2ncc(Cl)s2)c(Cl)c1` [Example 367, 3-Chloro-4-{[(5-chloro-1,3-thiazol-2-yl)amino]sulfonyl}-N-[4-fluoro-3-(trifluoromethoxy)benzyl]benzamide], the IC50 was 1510 nM.
Compound `O=C(NCc1ccc(Cl)c(Cl)c1)c1ccc(S(=O)(=O)Nc2ncc(Cl)s2)c(Cl)c1` [Example 368, 3-Chloro-4-{[(5-chloro-1,3-thiazol-2-yl)amino]sulfonyl}-N-(3,4-dichlorobenzyl) benzamide] has an IC50 of 400 nM.
Work on `O=C(NCc1ccc(Cl)c(F)c1)c1ccc(S(=O)(=O)Nc2ncc(Cl)s2)c(Cl)c1` [Example 369, 3-Chloro-N-(4-chloro-3-fluorobenzyl)-4-{[(5-chloro-1,3-thiazol-2-yl)amino]sulfonyl} benzamide] yielded an IC50 of 6170 nM.
Work on `O=C(NCc1ccc(F)c(C(F)(F)F)c1)c1ccc(S(=O)(=O)Nc2ncc(Cl)s2)c(Cl)c1` [Example 370, 3-Chloro-4-{[(5-chloro-1,3-thiazol-2-yl)amino]sulfonyl}-N-[4-fluoro-3-(trifluoromethyl)benzyl]benzamide] yielded an IC50 of 1220 nM.
`O=C(NCc1ccc(F)c(F)c1)c1ccc(S(=O)(=O)Nc2ncc(Cl)s2)c(Cl)c1` [Example 371, 3-Chloro-4-{[(5-chloro-1,3-thiazol-2-yl)amino]sulfonyl}-N-(3,4-difluorobenzyl) benzamide] gave an IC50 of 1300 nM.

Same assay, conditions: read-out: SCN3A EIC-50
Compound `O=C(NCc1ccc(C(F)(F)F)c(Cl)c1)c1ccc(S(=O)(=O)Nc2nccs2)cn1` [Example 341, N-[3-chloro-4-(trifluoromethyl)benzyl]-5-[(1,3-thiazol-2-ylamino)sulfonyl] pyridine-2-carboxamide] has an IC50 of 190 nM.
With `O=C(NCc1ccc(C(F)(F)F)c(F)c1)c1ccc(S(=O)(=O)Nc2ncc(Cl)s2)cn1` [Example 345, 5-{[(5-Chloro-1,3-thiazol-2-yl)amino]sulfonyl}-N-[3-fluoro-4-(trifluoromethyl)benzyl] pyridine-2-carboxamide] the IC50 was 270 nM.
`O=C(NCc1ccc(C(F)(F)F)c(Cl)c1)c1ccc(S(=O)(=O)Nc2ncc(Cl)s2)cn1` [Example 346, 5-{[(5-Chloro-1,3-thiazol-2-yl)amino]sulfonyl}-N-[3-chloro-4-(trifluoromethyl)benzyl] pyridine-2-carboxamide] gave an IC50 of 70 nM.
